Structures are written as SMILES.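 How tested: cells in 96-well plates exposed to compound for 48 hours at five concentrations. GI50: concentration for 50% inhibition of growth.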 Calls of active or inactive are those of the source. Cut-off read from the data, not from the text of the source: active = GI50 up to about 1.1 µM and inactive = higher.

Test systems include K562; RXF 393; UACC-257; SF-268; SF-539; HOP-92; SK-MEL-2; MDA-MB-231; BT-549; ACHN; T47D; KM12; UO-31; SW-620; OVCAR-5; HOP-62; MDA-MB-435; SK-MEL-5; MDA-N.
Holding throughout (assay): growth of human tumour cells (NCI), 48 h

On to `CC(NNC(=O)c1cc[n+]([BH2-]C#N)cc1)C(F)(F)F` (stereo unspecified), for which the GI50 in the test with K562, in the test on RXF 393, in the test on UACC-257, in the test on SF-268, in the test on SF-539 and in the test on HOP-92 was > 100 µM (inactive) each time. Moreover, the GI50 in the test on SK-MEL-2, in the test with MDA-MB-231, in the test with BT-549, with ACHN, in the test with T47D and in the test on KM12 was > 100 µM (inactive) throughout. Moreover, the GI50 in the test on UO-31, in the test on SW-620, in the test with OVCAR-5, in the test with HOP-62, in the test with MDA-MB-435 and in the test on SK-MEL-5 was > 100 µM (inactive) each time. Besides, the GI50 with MDA-N was > 100 µM (inactive).

As to `C/N=c1\sc2nc(C#N)c(C#N)nc2n1C`, the GI50 was 25.6 µM (inactive) with K562; 18.7 µM (inactive) with RXF 393; 24.2 µM (inactive) in the test on UACC-257; 32.4 µM (inactive) in the test with SF-268; 38.7 µM (inactive) in the test with SF-539; 21.2 µM (inactive) with HOP-92. Also, the GI50 with SK-MEL-2 was 16.5 µM (inactive); in the test on MDA-MB-231 it was 40.1 µM (inactive); with BT-549 it was 28.8 µM (inactive); with ACHN, 22.5 µM (inactive); with T47D, 34 µM (inactive); with KM12, 27.5 µM (inactive). In addition, the GI50 in the test with UO-31 was 20.4 µM (inactive); with SW-620, 18.4 µM (inactive); in the test with OVCAR-5 it was 19.2 µM (inactive); with HOP-62, 23.4 µM (inactive); with MDA-MB-435 it was 21 µM (inactive); in the test with SK-MEL-5, 19.1 µM (inactive). Also, the GI50 in the test with MDA-N is 22.4 µM (inactive).

`CCCC(=O)OCC1OC(n2cc(F)c(=O)[nH]c2=O)C(F)C1O` (stereo unspecified): the GI50 with K562 was 6.35 µM (inactive); with RXF 393 it was > 100 µM (inactive); in the test with UACC-257 it was > 59.7 µM (inactive); in the test on SF-268 it was > 26.4 µM (inactive); with SF-539, 0.774 µM (active); in the test on HOP-92, > 100 µM (inactive). Also, the GI50 in the test with SK-MEL-2 was > 100 µM (inactive); with MDA-MB-231, 38.1 µM (inactive); in the test with BT-549, 13.9 µM (inactive); in the test on ACHN it was 10.9 µM (inactive); with T47D it was > 100 µM (inactive); in the test on KM12, > 100 µM (inactive). Besides, the GI50 with UO-31 is 74.8 µM (inactive); with SW-620, > 100 µM (inactive); with OVCAR-5 it was > 100 µM (inactive); with HOP-62, 4.57 µM (inactive); in the test on MDA-MB-435, 61.5 µM (inactive); in the test on SK-MEL-5 it was > 40.4 µM (inactive). Also, the GI50 in the test on MDA-N is 14.9 µM (inactive).

Regarding `COc1ccc(CCNC(=O)Cc2cc(OC)c(OC)cc2CO)cc1OC`, the GI50 with K562, in the test on RXF 393, in the test with UACC-257, in the test on SF-268, in the test on SF-539 and in the test on HOP-92 was > 100 µM (inactive) in each case. In addition, the GI50 in the test on SK-MEL-2, in the test with MDA-MB-231, in the test with BT-549, with ACHN, with T47D and with KM12 was > 100 µM (inactive) in each case. Also, the GI50 with UO-31, in the test with SW-620, in the test on OVCAR-5, with HOP-62, with MDA-MB-435 and in the test with SK-MEL-5 was > 100 µM (inactive) throughout. For the same compound, the GI50 with MDA-N was > 100 µM (inactive).
